In US4341792A, “Heterobicyclic keto- and amino-acids, esters and amides” (Pfizer Inc., priority 1979, dated 1982):

Experiments:
[1] = system: diaphragm tissue from fat-fed rats (pyruvate oxidation); assay: Pyruvate oxidation by diaphragm tissue from fat-fed rats in vitro (carbon-14 from labelled pyruvate into carbon dioxide); format: cell-based; conditions: fat-fed rat diaphragm, read-out: % Stimulation (pyruvate oxidation); for activation at 500 µM: concentration 0.5 m. mol.; for activation at 2000 µM: concentration 2 m. mol.; for activation at 1000 µM: concentration 1 m. mol.
Procedure: (1) increase the oxidation of glucose and/or pyruvate by isolated rat muscle preparations in vitro; The compounds of formulae (I) and (II) have been tested for their ability to increase the oxidation of glucose and/or pyruvate as follows: Diaphragm tissue is obtained from rats fed on a high fat diet similar to `Diet B` described by Zaragoza and Felber, Horm. Metab. Res., 2, 323 (1970). Pyruvate oxidation by such tissue is assessed by measurement of the rate of incorporation of carbon-14 from carbon-14-labelled pyruvate into carbon dioxide in vitro, as described by Bringold, Eur. J. Biochem., 26, 360 (1972). The rate of pyruvate oxidation is depressed by 50-75% compared with that by diaphragm tissue from rats fed on a normal diet. When the compounds of the invention are added to the medium, they are found to stimulate pyruvate oxidation by diaphragm tissue from fat-fed rats in a dose dependent manner.

[2] = system: pyruvate dehydrogenase enzyme (PDH); assay: Increase in proportion of active form of pyruvate dehydrogenase (PDHa/PDHt) in hearts of fat-fed rats in vivo; conditions: fat-fed rat heart
Procedure: (2) increase the proportion of the active form of the enzyme pyruvate dehydrogenase (PDH) in organs of animals (e.g., rat heart) in vivo; and The ability of the compounds of this invention to increase the proportion of the active form of the pyruvate dehydrogenase enzyme has been measured in the following test: Rats fed on a high fat diet as in the previous test, are treated either with placebo or with the compound of formula (I) or (II) by sub-cutaneous or intravenous injection or by oral administration. After 11/2 hours the rat hearts are removed and homogenized under conditions which minimize changes in the proportion of the pyruvate dehydrogenase enzyme (PDH) which is present in the active form, as described by Whitehouse and Randle, Biochem, J., 134, 651 (1973). The total amount of the enzyme present (PDHt) and the amount which is present in the active form (PDHa) are assessed by a method similar to that described by Taylor et al., J. Biol. Chem., 248, 73 (1973). The fat-feeding process is found to depress the ratio […] from a normal value of about 0.7 to a value in the range from 0.1 to 0.3. Treatment of fat-fed rats with the compounds of formula (I) or (II) parenterally increases this ratio in a dose-dependent manner. The increase in […] ration affected by certain of the compounds when administered by subcutaneous infection at the dosage indicated is shown in the following table: […]

[3] = 0.6 mmol/kg subcutaneous, placebo 0.12

NC(=O)C(N)c1ccc2c(c1)CCO2 (racemic) [Example 6, DL-α-Amino-2,3-dihydro-5-benzo(b)furanylacetamide]
activation at 500 µM [1]: 29%
PDHa/PDHt ratio [2, 3]: 0.46

COCCNC(=O)C(N)c1ccc2c(c1)CCO2.Cl (racemic) [Example 7, DL-N-(2-Methoxyethyl)-α-amino-2,3-dihydro-5-benzo(b)furanylacetamide Hydrochloride]
activation at 500 µM [1]: 23%
PDHa/PDHt ratio [2, 3]: 0.47

NC(C(=O)O)c1ccc2occc2c1 (racemic) [Example 9, DL-2-[5-Benzo(b)furanyl]glycine]
activation at 500 µM [1]: 42%

NC(=O)C(N)c1ccc2occc2c1 (racemic) [Example 10, DL-2-[5-Benzo(b)furanyl]glycinamide]
activation at 500 µM [1]: 46%

NC(C(=O)O)c1ccc2c(c1)CCS2 (racemic) [Example 13, DL-2-[2,3-Dihydro-5-benzo(b)thienyl]glycine]
activation at 500 µM [1]: 21%

NC(=O)C(N)c1ccc2c(c1)CCS2 (racemic) [Example 15, DL-2-[2,3-Dihydro-5-benzo(b)thienyl]glycinamide]
activation at 2000 µM [1]: 11%

O=C(O)C(=O)c1ccc2c(c1)CCS2 [Example 2, 2,3-Dihydro-5-benzo(b)thienylglyoxylic Acid]
activation at 1000 µM [1]: 105%
PDHa/PDHt ratio ([2]; 1.2 mmol/kg subcutaneous, placebo 0.27): 0.48

O=C(O)C(=O)c1ccc2c(c1)CCO2 [Example 3, 2,3-Dihydro-5-benzo(b)furanylglyoxylic Acid]
activation at 1000 µM [1]: 128%
PDHa/PDHt ratio ([2]; 0.3 mmol/kg subcutaneous, placebo 0.11): 0.21

O=C(O)C(=O)c1ccc2c(c1)CCCO2 [Example 4, 6-Chromanylglyoxylic Acid]
activation at 500 µM [1]: 69%

O=C(O)C(=O)c1ccc2occc2c1 [Example 8, 5-Benzo(b)furanylglyoxlic Acid]
activation at 500 µM [1]: 95%

O=C(O)C(=O)c1ccc2oc(-c3ccccc3)cc2c1 [Example 11, 2-Phenyl-5-benzo(b)furanyl Glyoxylic Acid]
activation at 2000 µM [1]: 99%
PDHa/PDHt ratio ([2]; 0.3 mmol/kg subcutaneous, placebo 0.20): 0.26

Cc1cc2cc(C(=O)C(=O)O)ccc2o1 [Example 12, 2-Methyl-5-benzo(b)furanylglyoxylic Acid]
activation at 500 µM [1]: 58%
PDHa/PDHt ratio ([2]; 0.3 mmol/kg subcutaneous, placebo 0.12): 0.36
